Data on 14 compounds can be found in patent US11071721B2, “Bicyclic amide compounds and methods of use thereof” (Genentech, Inc., priority 2016, dated 2021).

Sequence of human RIP1 kinase domain (2-375) (Q13546 2-375): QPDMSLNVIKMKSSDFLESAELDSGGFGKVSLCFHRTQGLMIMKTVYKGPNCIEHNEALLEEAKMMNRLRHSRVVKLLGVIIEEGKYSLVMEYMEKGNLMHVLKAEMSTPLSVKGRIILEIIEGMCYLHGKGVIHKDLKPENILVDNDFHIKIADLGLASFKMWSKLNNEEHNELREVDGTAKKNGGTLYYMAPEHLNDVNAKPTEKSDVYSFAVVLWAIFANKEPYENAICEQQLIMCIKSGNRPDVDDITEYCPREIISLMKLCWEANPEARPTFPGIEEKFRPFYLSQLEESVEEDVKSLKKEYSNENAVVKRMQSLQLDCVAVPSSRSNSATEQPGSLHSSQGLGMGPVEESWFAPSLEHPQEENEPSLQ

The assay addresses human RIP1 kinase domain (2-375) (Homo sapiens (Human), UniProt Q13546). The assay is described as follows: RIP1 kinase inhibition assay (Transcreener ADP biochemical enzyme assay). Conditions: Ki app (Morrison tight-binding fit); 50 nM enzyme, 50 uM ATP, 2 hours incubation, fluorescence polarization. How it is done: RIP1 Kinase Inhibition Assays (Biochemical Assay):
The compounds of the present invention were tested for their capacity to inhibit RIP K activity as described below.
Enzyme assay: The ability of the receptor interacting protein kinase (RIPK1) to catalyze the hydrolysis of adenosine-5′-triphosphate (ATP) is monitored using the Transcreener ADP (adenosine-5′-diphosphate) assay (BellBrook Labs). Purified human RIP1 kinase domain (2-375) (50 nM) derived from a baculovirus-infected insect cell expression system is incubated with test compounds for 2 hours in 50 mM Hepes buffer (pH 7.5) containing 30 mM MgCl2, 1 mM dithiothreitol, 50 uM ATP, 0.002% Brij-35, and 0.5% dimethyl sulfoxide (DMSO). Reactions are quenched by the addition of 1× Bell Brooks Stop buffer B (20 mM Hepes (ph7.5), 40 mM ethylenediaminetetraacetic acid and 0.02% Brij-35) containing an additional 12 mM EDTA and 55 ug/mL ADP2 antibody and 4 nM ADP-AlexaFluor® 633 tracer. The tracer bound to the antibody is displaced by the ADP generated during the RIP1K reaction, which causes a decrease in fluorescence polarization that is measured by laser excitation at 633 nm with a FP microplate reader M1000. Fractional activity was plotted against test article concentration. Using Genedata Screener software (Genedata; Basel, Switzerland), the data were fit to the tight-binding apparent inhibition constant (Ki^app) Morrison equation [Williams, J. W. and Morrison, J. F. (1979) The kinetics of reversible tight-binding inhibition. Methods Enzymol 63: 437-67]. The following equation was used to calculate fractional activity and Ki^app:
[formula] where [E]T and [I]T are the total concentrations of active enzyme and test article, respectively.
`CN(C)C(=O)c1nc2n(n1)CCOC2c1ccccc1` (racemic) [Example 41, N,N-dimethyl-8-phenyl-6,8-dihydro-5H-[1,2,4]triazolo[5,1-c][1,4]oxazine-2-carboxamide] gave a Ki of 8000 nM.
`CN(C)C(=O)c1nc2n(n1)CCOC2c1ccccc1F` (racemic) [Example 43, 8-(2-fluorophenyl)-N,N-dimethyl-6,8-dihydro-5H-[1,2,4]triazolo[5,1-c][1,4]oxazine-2-carboxamide] registered a Ki of 5000 nM.
For `CCN(CC)C(=O)c1nc2n(n1)CCOC2c1ccccc1F` (racemic) [Example 44, N,N-diethyl-8-(2-fluorophenyl)-6,8-dihydro-5H-[1,2,4]triazolo[5,1-c][1,4]oxazine-2-carboxamide] the value was 4800 nM; for `O=C(c1nc2n(n1)CCOC2c1ccccc1F)N1CC(F)C1` (racemic) [Example 45, (3-fluoroazetidin-1-yl)-[8-(2-fluorophenyl)-6,8-dihydro-5H-[1,2,4]triazolo[5,1-c][1,4]oxazin-2-yl]methanone], 2300 nM; for `O=C(c1nc2n(n1)C(c1ccccc1)C1CC21)N1CC(F)C1` (racemic) [Example 46], 917 nM.
For `O=C(c1nc2n(n1)C(c1ccccc1)C1CC21)N1CC(F)(F)C1` (racemic) [Example 47] the value was 195 nM; for `O=C(c1nc2n(n1)[C@H](C(F)(F)F)CC2)N1CC(F)(F)C1` (racemic) [Example 49, (3,3-difluoroazetidin-1-yl)-[rac-(5S)-5-(trifluoromethyl)-6,7-dihydro-5H-pyrrolo[1,2-b][1,2,4]triazol-2-yl]methanone], 5000 nM; for `O=C(c1nc2n(n1)[C@H](c1ccccc1)C[C@@H]2F)N1CC(C(F)(F)F)C1` (racemic) [Example 50, [rac-(5S,7S)-7-fluoro-5-phenyl-6,7-dihydro-5H-pyrrolo[1,2-b][1,2,4]triazol-2-yl]-[3-(trifluoromethyl)azetidin-1-yl]methanone], 1600 nM.
For `O=C(c1nc2n(n1)[C@H](c1ccccc1)C[C@@H]2F)N1CC(C(F)F)C1` (racemic) [Example 51, [3-(difluoromethyl)azetidin-1-yl]-[rac-(5S, 7S)-7-fluoro-5-phenyl-6,7-dihydro-5H-pyrrolo[1,2-b][1,2,4]triazol-2-yl]methanone] the value was 100 nM; for `O=C(c1nc2n(n1)[C@H](c1ccccc1)C[C@@H]2F)N1CC[C@@H]1C(F)F` (racemic) [Example 53, [rac-(2R)-2-(difluoromethyl)azetidin-1-yl]-[rac-(5S,7S)-7-fluoro-5-phenyl-6,7-dihydro-5H-pyrrolo[1,2-b][1,2,4]triazol-2-yl]methanone], 9 nM; for `COCCN(CC(F)(F)F)C(=O)c1nc2n(n1)[C@H](c1ccccc1)C[C@@H]2F` (racemic) [Example 55, rac-(5S,7S)-7-fluoro-N-(2-methoxyethyl)-5-phenyl-N-(2,2,2-trifluoroethyl)-6,7-dihydro-5H-pyrrolo[1,2-b][1,2,4]triazole-2-carboxamide], 3900 nM.
In turn, `COCCN(CC(F)F)C(=O)c1nc2n(n1)[C@@H](c1ccccc1)C[C@H]2F` (racemic) [Example 56, rac-(5R,7R)-N-(2,2-difluoroethyl)-7-fluoro-N-(2-methoxyethyl)-5-phenyl-6,7-dihydro-5H-pyrrolo[1,2-b[[1,2,4]triazole-2-carboxamide] returned a Ki of 520 nM.
As to `O=C(c1nc2n(n1)[C@H](c1ccccc1)C[C@@H]2F)N(CC(F)(F)F)C1COC1` (racemic) [Example 57, rac-(5S,7S)-7-fluoro-N-(oxetan-3-yl)-5-phenyl-N-(2,2,2-trifluoroethyl)-6,7-dihydro-5H-pyrrolo[1,2-b][1,2,4]triazole-2-carboxamide], the Ki was determined as 510 nM.
`O=C(c1nc2n(n1)[C@H](c1ccccc1)C[C@@H]2F)N(CC(F)F)C1CC1` (racemic) [Example 58, rac-(5S,7S)-N-cyclopropyl-N-(2,2-difluoroethyl)-7-fluoro-5-phenyl-6,7-dihydro-5H-pyrrolo[1,2-b][1,2,4]triazole-2-carboxamide]: the Ki is 570 nM.
